Experimental data published in patent publication US20140366219A1, “Increasing Soybean Defense Against Pests” (priority 2011, published 2014).
“And” between values parts separate entries of the source, which are not always exact repeats. Equal entries are not always repeated.

T1: GmSAMT1 (Glycine max, UniProt B5A7G5)
T1 sequence (B5A7G5 1-370): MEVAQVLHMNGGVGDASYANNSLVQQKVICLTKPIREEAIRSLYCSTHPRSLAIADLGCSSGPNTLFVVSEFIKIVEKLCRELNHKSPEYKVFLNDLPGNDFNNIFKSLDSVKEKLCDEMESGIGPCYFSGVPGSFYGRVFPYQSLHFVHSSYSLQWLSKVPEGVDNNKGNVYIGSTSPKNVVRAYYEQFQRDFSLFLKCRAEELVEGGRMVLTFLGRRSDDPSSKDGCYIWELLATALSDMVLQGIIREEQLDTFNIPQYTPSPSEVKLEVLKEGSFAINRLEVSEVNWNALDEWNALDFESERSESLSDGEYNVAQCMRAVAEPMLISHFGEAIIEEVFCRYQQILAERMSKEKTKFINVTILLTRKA

B1: GmSABP2-1: soybean methyl salicylate esterase gene (SEQ ID NO: 2), over-expressed in transgenic hairy roots (nucleic acid)
DNA: ATGGGTTCACAAAATTGTATGGATAGGAAGCACTATGTTCTGGTGCATGGGGCATGCCATGGAGCTTGGTGTTGGTATAAGCTCAAGCCACGCTTGGAATCTGCAGGCCATAAGGTCACAGTACTTGACCTTGCAGCTTCTGGAACCAACATGAAGAAAATTGAAGATGTTGATACTTTCTCAGAGTATTCTGCGCCTTTGTTGCAGCTAATGGCCACAATTCCCTCAAATGAGAAGTTAGTTCTAGTTGGTCACAGCCTTGGAGGGCTGAACATAGCACTTGCAATGGAGAAATTCCCAGAAAAGGTAGCAGTTGGTGTTTTCTTAACAGCTTTTGCTCCAGACACTGAACACCACCCATCTTATGTCTTGGAAAAGTACAATGAGAGGACCCCGTTAGCTGCATGGTTAGACACTGAATTTGCTCCAAGCGGAAACAAAACATCAATGTTCTTCGGCCCCAACTTCTTGTCCGACAAGCTCTACCAACTGTCCCCTATTGAGGACTTGGAATTGGCCAAGACTTTAGCAAGGCCATCATCGCTCTTCATGGAAGACTTGACTAAACAAAAGAACTTCTCCAAAGAGGGATATGGGTCAGTTCCACGTGCCTTTATTGTTTGCACGGAGGACCTTGGAATTCCATTGGAATATCAGCTCTTGATGATCCAAAATGTTGGGTTCAATGACGTTGTAGAGGTCAAAGACGCAGATCATATGGTTATGCTTTGCAAGCCACAAGAACTATTCGATTCCCTCCAGCAGATAGCGACTAAATATGCATGA
modifications: Glycine Max
B2: GmSAMT1 (Glycine max) (protein)
chain: MEVAQVLHMNGGVGDASYANNSLVQQKVICLTKPIREEAIRSLYCSTHPRSLAIADLGCSSGPNTLFVVSEFIKIVEKLCRELNHKSPEYKVFLNDLPGNDFNNIFKSLDSVKEKLCDEMESGIGPCYFSGVPGSFYGRVFPYQSLHFVHSSYSLQWLSKVPEGVDNNKGNVYIGSTSPKNVVRAYYEQFQRDFSLFLKCRAEELVEGGRMVLTFLGRRSDDPSSKDGCYIWELLATALSDMVLQGIIREEQLDTFNIPQYTPSPSEVKLEVLKEGSFAINRLEVSEVNWNALDEWNALDFESERSESLSDGEYNVAQCMRAVAEPMLISHFGEAIIEEVFCRYQQILAERMSKEKTKFINVTILLTRKA

biological target: T1, GmSAMT1; experiment: Radiochemical SAMT activity assay, substrate specificity of recombinant GmSAMT1; format: biochemical, soybean; conditions: all substrates at 1 mM; activity with salicylic acid set at 100%; average of three measurements
Experimental: (§1) A 50 μl volume containing 50 mM Tris-HCl, pH 7.5, 1 mM SA, and 3 μM ^14C-SAM with a specific activity of 51.4 mCi/mmol (Perkin-Elmer, Boston, Mass.) was used. The assay was initiated by addition of SAM, maintained at 25° C. for 30 min, and stopped by the addition of ethyl acetate (150 μl). After phase separation by 1 min centrifugation at 14,000 g, the upper organic phase was counted using a liquid scintillation counter (Beckman Coulter, Fullerton, Calif.). The radiation counts in the organic phase indicated the amount of synthesized MeSA. Substrate specificity assay was also performed for recombinant GmSAMT1, with a range of substrates including SA, benzoic acid, anthranilic acid, 3-hydroxybenzoic acid, 4-hydroxybenzoic acid, nicotinic acid, p-coumaric acid, caffeic acid, cinnamic acid, vanallic acid, jasmonic acid (JA), gibberellic acid, indole-3-acetic acid, and 2,4-dichlorophenoxyacetic acid. The activity with SA was set at 100%. Three independent assays were performed for each compound.

Row | Molecule | Relative activity of GmSAMT1 with substrate [%]
1 | O=C(O)Cc1c[nH]c2ccccc12 [Indole-3-acetic acid, indole-3-acetic acid] | 0
2 | O=C(O)/C=C/c1ccc(O)c(O)c1 [Caffeic acid, caffeic acid] | 0
3 | O=C(O)c1cccnc1 [Nicotinic acid, nicotinic acid] | 0
4 | O=C(O)c1ccccc1O [Salicylic acid, salicylic acid] | 100
5 | O=C(O)/C=C/c1ccc(O)cc1 [p-Coumaric acid, p-coumaric acid] | 0
6 | COc1cc(C(=O)O)ccc1O [Vanallic acid, vanallic acid] | 0
7 | O=C(O)COc1ccc(Cl)cc1Cl [2,4-Dichlorophenoxyacetic acid, 2,4-dichlorophenoxyacetic acid] | 0
8 | O=C(O)c1ccccc1 [Benzoic acid, benzoic acid] | 16.9
9 | Nc1ccccc1C(=O)O [Anthranilic acid, anthranilic acid] | 9.3
10 | O=C(O)C=Cc1ccccc1 [Cinnamic acid, cinnamic acid] | 0
11 | C=C1C[C@]23C[C@@]1(O)CC[C@H]2[C@@]12C=C[C@H](O)[C@@](C)(C(=O)O1)[C@H]2[C@@H]3C(=O)O [Gibberellic acid, gibberellic acid] | 0
12 | O=C(O)c1cccc(O)c1 [3-Hydroxybenzoic acid, 3-hydroxybenzoic acid] | 1.8
13 | CC/C=C\C[C@H]1C(=O)CC[C@@H]1CC(=O)O [Jasmonic acid, jasmonic acid] | 0
14 | O=C(O)c1ccc(O)cc1 [4-Hydroxybenzoic acid, 4-hydroxybenzoic acid] | 0

same assay, conditions: all substrates at 1 mM; activity with salicylic acid set at 100%; average of three measurements; listed as JA

Row | Molecule | Relative activity of GmSAMT1 with substrate
15 | CC/C=C\C[C@H]1C(=O)CC[C@@H]1CC(=O)O [Jasmonic acid, jasmonic acid] | no activity was detected

same assay, conditions: all substrates at 1 mM; activity with salicylic acid set at 100%; average of three measurements; listed as gibberellic acid

Row | Molecule | Relative activity of GmSAMT1 with substrate
16 | C=C1C[C@]23C[C@@]1(O)CC[C@H]2[C@@]12C=C[C@H](O)[C@@](C)(C(=O)O1)[C@H]2[C@@H]3C(=O)O [Gibberellic acid, gibberellic acid] | no activity was detected

same assay, conditions: all substrates at 1 mM; activity with salicylic acid set at 100%; average of three measurements; listed as indole-3-acetic acid

Row | Molecule | Relative activity of GmSAMT1 with substrate
17 | O=C(O)Cc1c[nH]c2ccccc12 [Indole-3-acetic acid, indole-3-acetic acid] | no activity was detected

biological target: T1, GmSAMT1; experiment: Effects of metal ions on activity of GmSAMT1; format: biochemical, soybean; conditions: chloride salts at 5 mM final concentration; control without metal ion set at 1.0
Experimental: as §1
Appropriate enzyme concentrations and incubation time were determined in time course assays to make sure that the reaction velocity was linear during the assay period. Lineweaver-Burk plots yielded apparent Km values. To determine the Km for SA, concentrations of SA were independently varied from 2 to 150 μM, while SAM was held constant at 200 μM. Assays were conducted at 25° C. for 30 min, as described in SAMT activity assay. The optimal pH for GmSAMT1 was assayed from pH 6.0 to pH 9.0, and optimal reaction of temperature was assayed ranging from 0° C. to 60° C. Effects of metal ions on activity of GmSAMT1 were assayed with a range of metal ions, including K^+, Cu^2+, Zn^2+, Fe^2+, Fe^3+, Mn^2+, Ca^2+, Na^+, NH4^+, and Mg^2+, in the form of chloride salts at 5 mM final concentrations.

Row | Molecule | effect of metal ion on GmSAMT1 activity compared with control
18 | [Cl][Fe][Cl] [Fe^2+] | no activity
19 | [Cl-].[Cl-].[Zn+2] [Zn^2+] | no activity
20 | [Cl-].[Na+] [Na^+] | minimal effect
21 | [Cl-].[Cl-].[Mg+2] [Mg^2+] | minimal effect
22 | [Cl][Cu][Cl] [Cu^2+] | no activity
23 | [Cl][Mn][Cl] [Mn^2+] | moderately inhibited
24 | [Cl-].[K+] [K] | double activity
25 | [Ca+2].[Cl-].[Cl-] [Ca^2+] | moderately inhibited
26 | Cl.N [NH4^+] | minimal effect

test system: SCN race 2; experiment: Nematode infection and demographics assay in transgenic soybean hairy roots; format: in vivo, Heterodera glycines; conditions: TN02-275 background; susceptibility of vector control in susceptible background set at 100%
Text: The soybean hairy root transformation system by infection with A. rhizogenes harboring the target genes were modified and used to study soybean resistance against SCN. A. rhizogenes K599 harboring the target gene, vector control and A. rhizogenes K599 alone were used to inoculate the TN02-275 soybeans, which are susceptible to SCN race 2. To better evaluate the resistance of the target gene, A. rhizogenes harboring the vector control and A. rhizogenes K599 alone were also used to inoculate the TN02-226 soybeans, which are resistant to SCN race 2. Generation of soybean hairy roots was modified as follows: First, soybean seeds were sterilized with chlorine gas. Second, a single layer of mature soybean seeds with intact seed coats were placed in open Petri dish, which was put in a bell jar desiccator within a fume hood. A beaker with 100 ml bleach was also placed in the desiccator and added 5 ml concentrated (12N) HCl along the side of the beaker. Then the seeds were kept in the closed desiccator immediately and maintained in the chlorine gas atmosphere overnight (about 16 h). After sterilization, seeds were transferred to the autoclaved filter paper moistened with sterilized distilled water in the Petri dishes for germination in a laminar flow hood. The germinated soybean seeds were sowed in sterilized vermiculite and six seeds were grown in each cell of 18-cell germination tray. The overnight cultured bacteria lawn of A. rhizogenes K599 with binary vector pJL-OFP, pJL-OFP-35S::GUS or pJL-OFP-35S::GmSAMT1 from LB medium plate containing […] kanamycin, or a culture of A. rhizogenes K599 lacking the binary vector grown in LB medium without any antibiotics was collected and suspended in 1 ml of sterile distilled water, respectively. Soybean cotyledonary nodes and upper hypocotyls of 5-day-old seedlings with unfolded cotyledons were stabbed three times by the syringe containing the bacterial suspension. In the first week, the trays were covered with the sterile transparent lids to retain high humidity. In the subsequent three weeks, plants were transferred into pots and the A. rhizogenes wounding sites were covered by wet sterile vermiculite to continually keep high humidity. Each day soybean plants were watered using sterile B&D solution containing 1 mM CaCl2, 0.5 mM KH2PO4, 10 μM Fe-citrate, 0.25 mM MgSO4, 0.25 mM K2SO4, 1 μM MnSO4, 2 μM H3BO4, 0.5 μM ZnSO4, 2 μM CuSO4, 0.1 μM CoSO4, 0.1 μM Na2MoO4, and 1 mM KNO3. The growth conditions for soybean plants were 12 h light/12 h dark at 28° C./25° C. with irradiance from fluorescent bulbs at 150-200 μmol m^−2·s^−1. After about four weeks, the hairy roots grew to approximately 10 cm in length. Soybean transgenic roots were detected based on OFP expression, using a fluorescence stereomicroscope (Olympus SZX12 fluorescence microscope and OFP filter). The tap root and non-transgenic roots were excised under the wounding site. Transgenic roots harboring pJL-OFP-35S::GUS screened by OFP signal were immersed in GUS solution (1 mM X-Gluc), 0.5 mM potassium ferrocyanide, 0.1% (v/v) TRITON™ X-100, 100 mM sodium phosphate buffer pH 7.0), and incubated at 37° C. overnight. In the following day, the X-Gluc solution was discarded. The roots were washed repeatedly with 70% ethanol to remove chlorophyll. Transgenic roots with visual GUS stain were recorded.
To easily compare the SCN infection, one transgenic root was left for the SCN inoculation. […]

Row | Molecule | reduction of susceptibility [%]
27 | B1 | 84.5

substrate: O=C(O)c1ccccc1O; experiment: Determination of kinetic parameters of GmSAMT1 (Lineweaver-Burk); format: biochemical, soybean; conditions: other: SA varied 2 to 150 μM, SAM 200 μM, 25° C., 30 min
Experimental: as §1
Appropriate enzyme concentrations and incubation time were determined in time course assays to make sure that the reaction velocity was linear during the assay period. Lineweaver-Burk plots yielded apparent Km values. To determine the Km for SA, concentrations of SA were independently varied from 2 to 150 μM, while SAM was held constant at 200 μM. […]

Row | Molecule | Km
28 | B2 | 32.9 ± 1.7 µM and 46.2 ± 4.2 µM
